The supplement of paper PMC10331698
± gives the standard deviation of the averaged measurements.

What was measured:
Experiment in all cases: level (log10 ratio to DMSO vehicle control); higher = higher biomarker level / cell amount than vehicle control
[1] = compound: C=C(C)C(=O)OCC(F)(F)C(F)(F)C(F)(F)F [2,2,3,3,4,4,4-Heptafluorobutyl methacrylate]; settings: in DMSO
Experimental: (§1)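 BioMAP Diversity Plus panel of 12 human primary cell co-culture systems (3C, 4H, LPS, SAg, BT, BF4T, BE3C, CASM3C, HDF3CGF, KF3CT, MyoF, Mphg). Compounds were added 1 h before stimulation and left for 24 h (MyoF 48 h; BT 72 h for soluble read-outs or 6 d for IgG). Biomarkers were read by ELISA, cytotoxicity by SRB, PBMC viability and proliferation by Alamar Blue. Each well value was divided by the mean of 8 DMSO control wells on the same plate and log10 transformed; duplicate blinded samples were tested at 4 concentrations.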

Tetrafluorosuccinic acid = compound: O=C(O)C(F)(F)C(F)(F)C(=O)O [Tetrafluorosuccinic acid]; settings: in DMSO
Experimental: as §1

[2] = compound: O=S(=O)(O)CCC(F)(F)C(F)(F)C(F)(F)C(F)(F)F [4:2 Fluorotelomer sulfonic acid]; settings: in DMSO
Experimental: as §1

[3] = compound: O=S(=O)(OCC(F)(F)F)C(F)(F)C(F)(F)C(F)(F)C(F)(F)F [2,2,2-Trifluoroethyl perfluorobutanesulfonate]; settings: in DMSO
Experimental: as §1

[4] = compound: OCC(F)(F)C(F)(F)C(F)(F)C(F)(F)C(F)(F)C(F)(F)C(F)(F)C(F)(F)CO [1H,1H,10H,10H-Perfluorodecane-1,10-diol]; settings: in DMSO
Experimental: as §1

[5] = compound: OCC(F)(F)C(F)(F)C(F)(F)C(F)(F)C(F)(F)C(F)(F)F [6:1 Fluorotelomer alcohol]; settings: in DMSO
Experimental: as §1

[6] = compound: OCCC(F)(F)C(F)(F)C(F)(F)C(F)(F)C(F)(F)C(F)(F)C(F)(F)C(F)(F)F [8:2 Fluorotelomer alcohol]; settings: 6700 nM; in DMSO
Experimental: as §1

Test System | level (log10) ([1]; 6700 nM) | level (log10) ([1]; 20000 nM) | level (log10) ([1]; 60000 nM) | level (log10) (Tetrafluorosuccinic acid; 6700 nM) | level (log10) (Tetrafluorosuccinic acid; 20000 nM) | level (log10) (Tetrafluorosuccinic acid; 60000 nM) | level (log10) ([2]; 6700 nM) | level (log10) ([2]; 20000 nM) | level (log10) ([2]; 60000 nM) | level (log10) ([3]; 6700 nM) | level (log10) ([3]; 20000 nM) | level (log10) ([3]; 60000 nM) | level (log10) ([4]; 6700 nM) | level (log10) ([4]; 20000 nM) | level (log10) ([4]; 60000 nM) | level (log10) ([5]; 6700 nM) | level (log10) ([5]; 20000 nM) | level (log10) ([5]; 60000 nM) | level (log10) [6]
lMphg:CD106/VCAM-1 | 0.0005 ± 0.0021 | 0.005 ± 0.04 | 0.0115 ± 0.026 | -0.017 ± 0.0028 | 0.0085 ± 0.0021 | 0.018 ± 0.03 | -0.0145 ± 0.0078 | -0.0075 ± 0.011 | -0.0135 ± 0.005 | -0.0355 ± 0.015 | -0.0215 ± 0.028 | -0.055 ± 0.024 | -0.008 ± 0.0014 | -0.0075 ± 0.029 | -0.802 | 0.0035 ± 0.021 | 0.0035 ± 0.032 | 0.0115 ± 0.04 | 0.0055 ± 0.012
CASM3C:CD141/Thrombomodulin | 0.0205 ± 0.011 | 0 ± 0.042 | 0.0115 ± 0.036 | -0.0015 ± 0.012 | 0.013 ± 0.023 | -0.0265 ± 0.025 | -0.01 ± 0.031 | -0.021 ± 0.0099 | -0.0045 ± 0.029 | -0.0045 ± 0.0021 | 0.008 ± 0.037 | 0.0045 ± 0.0064 | -0.0225 ± 0.028 | -0.0335 ± 0.04 | 0.026 | 0.0105 ± 0.044 | 0.023 ± 0.0028 | 0.023 ± 0.0099 | 0.0135 ± 0.0021
CASM3C:SRB | 0.0045 ± 0.0021 | -0.0005 ± 0.0092 | -0.004 ± 0.0057 | -0.012 ± 0.0028 | -0.005 ± 0.0014 | -0.0105 ± 0.005 | -0.0045 ± 0.0064 | -0.013 ± 0.0028 | -0.001 ± 0.0028 | -0.006 | -0.005 ± 0.0028 | -0.0055 ± 0.0064 | 0.0015 ± 0.0021 | -0.002 ± 0.0099 | -0.067 | 0.008 | 0.003 ± 0.0057 | -0.04 ± 0.0042 | -0.014 ± 0.0057
lMphg:CD62E/E-Selectin | -0.0085 ± 0.015 | -0.0005 ± 0.013 | -0.031 ± 0.0028 | -0.0075 ± 0.032 | 0.0085 ± 0.011 | 0.032 ± 0.013 | -0.0235 ± 0.033 | -0.0105 ± 0.061 | -0.0105 ± 0.011 | 0.02 ± 0.031 | 0.0255 ± 0.033 | -0.0435 ± 0.0064 | -0.0175 ± 0.005 | -0.102 ± 0.11 | -0.8 | 0.009 ± 0.024 | -0.008 ± 0.011 | -0.002 ± 0.023 | 0.024 ± 0.023
KF3CT:PAI-I | 0.005 ± 0.0099 | 0.008 ± 0.0014 | 0.014 | -0.0465 ± 0.037 | -0.0005 ± 0.0021 | 0 ± 0.0014 | -0.005 ± 0.0071 | -0.015 ± 0.0014 | -0.0175 ± 0.0064 | 0.0005 ± 0.028 | 0.003 ± 0.033 | 0.0265 ± 0.018 | -0.0015 ± 0.021 | 0.023 ± 0.018 | -0.341 | -0.0005 ± 0.011 | -0.001 ± 0.011 | 0.008 ± 0.0099 | -0.0255 ± 0.018
HDF3CGF:CXCL10/IP-10 | -0.017 ± 0.0071 | -0.021 ± 0.0071 | -0.024 ± 0.016 | -0.0225 ± 0.0078 | -0.027 ± 0.04 | -0.0425 ± 0.064 | 0.0085 ± 0.0078 | -0.013 ± 0.016 | -0.0205 ± 0.06 | -0.024 ± 0.0014 | -0.058 | -0.099 ± 0.0042 | -0.0045 ± 0.028 | -0.0355 ± 0.0035 | -0.578 | -0.002 ± 0.0014 | -0.017 ± 0.044 | -0.401 ± 0.061 | -0.039 ± 0.0085
HDF3CGF:PAI-I | -0.045 ± 0.011 | -0.018 ± 0.1 | 0.0135 ± 0.0035 | -0.0295 ± 0.0078 | -0.009 ± 0.0014 | 0.003 ± 0.037 | 0.0085 ± 0.044 | -0.011 ± 0.014 | -0.02 ± 0.021 | -0.0125 ± 0.0092 | -0.02 ± 0.024 | -0.021 ± 0.0014 | -0.0005 ± 0.0035 | 0.007 ± 0.0014 | -0.564 | 0.006 ± 0.018 | 0.0105 ± 0.026 | -0.103 ± 0.18 | -0.0555 ± 0.0035
KF3CT:CD54/ICAM-1 | 0.0015 ± 0.016 | -0.003 ± 0.016 | 0.0085 ± 0.005 | 0.011 ± 0.0085 | 0.003 | 0.025 ± 0.0042 | -0.006 ± 0.0085 | -0.0125 ± 0.0092 | -0.0125 ± 0.0078 | 0.015 ± 0.03 | -0.0055 ± 0.0092 | -0.006 ± 0.013 | -0.002 ± 0.0085 | -0.018 ± 0.0057 | -0.125 | 0.001 ± 0.0014 | -0.005 ± 0.0071 | 0.016 ± 0.013 | -0.0195 ± 0.0021
HDF3CGF:CXCL9/MIG | -0.0185 ± 0.005 | -0.024 ± 0.0071 | -0.0395 ± 0.011 | -0.0285 ± 0.029 | -0.039 ± 0.065 | -0.06 ± 0.086 | -0.01 ± 0.02 | -0.0025 ± 0.029 | -0.023 ± 0.025 | -0.0075 ± 0.016 | -0.011 ± 0.014 | -0.039 ± 0.0071 | 0.012 ± 0.013 | -0.037 ± 0.014 | -0.789 | -0.001 ± 0.0042 | -0.012 ± 0.011 | -0.0175 ± 0.0078 | 0.004 ± 0.0028
HDF3CGF:CXCL8/IL-8 | 0.0005 ± 0.0021 | -0.0045 ± 0.0092 | 0.006 ± 0.0028 | -0.01 ± 0.0085 | -0.004 ± 0.0085 | -0.0055 ± 0.0078 | -0.011 ± 0.016 | -0.0025 ± 0.0021 | 0.007 ± 0.017 | 0.003 ± 0.0071 | 0.001 ± 0.0071 | 0.0125 ± 0.0064 | 0.004 ± 0.013 | -0.0055 ± 0.021 | -0.081 | 0.0005 ± 0.0092 | 0.001 ± 0.013 | -0.046 ± 0.052 | 0.005 ± 0.0099
HDF3CGF:CXCL11/I-TAC | -0.0085 ± 0.023 | -0.01 ± 0.034 | -0.0405 ± 0.018 | -0.03 ± 0.035 | -0.0215 ± 0.005 | -0.0565 ± 0.071 | -0.0475 ± 0.059 | -0.037 ± 0.064 | -0.089 ± 0.024 | -0.014 ± 0.016 | -0.0495 ± 0.00071 | -0.137 ± 0.016 | 0.013 ± 0.0042 | -0.031 ± 0.025 | -0.497 | -0.009 ± 0.016 | -0.014 ± 0.0071 | -0.22 ± 0.35 | -0.04 ± 0.024
CASM3C:Serum Amyloid A | 0.0145 ± 0.0078 | 0.03 ± 0.021 | 0.0075 ± 0.0064 | 0.011 ± 0.011 | 0.017 ± 0.018 | 0.025 ± 0.037 | -0.008 ± 0.017 | -0.0055 ± 0.0021 | -0.015 ± 0.041 | -0.0625 ± 0.077 | -0.0375 ± 0.052 | 0.006 ± 0.031 | -0.011 ± 0.0042 | -0.016 ± 0.0057 | -0.059 | -0.001 ± 0.013 | 0.01 ± 0.017 | -0.052 ± 0.018 | 0.0015 ± 0.016
CASM3C:HLA-DR | -0.0035 ± 0.0078 | 0.0125 ± 0.0021 | 0.0135 ± 0.015 | -0.005 ± 0.0099 | -0.0145 ± 0.013 | 0.0015 ± 0.0064 | 0.0045 ± 0.0064 | -0.017 ± 0.014 | -0.0115 ± 0.00071 | 0.0015 ± 0.0064 | -0.0015 ± 0.0064 | 0.0125 ± 0.005 | -0.0185 ± 0.0078 | -0.0275 ± 0.0064 | -0.065 | 0.0095 ± 0.0064 | 0.0135 ± 0.0021 | -0.0195 ± 0.035 | -0.022 ± 0.018
KF3CT:CXCL8/IL-8 | -0.0045 ± 0.023 | -0.0035 ± 0.015 | -0.0035 ± 0.013 | -0.029 ± 0.011 | -0.031 ± 0.0042 | -0.0175 ± 0.026 | -0.0095 ± 0.0078 | -0.024 ± 0.018 | -0.023 ± 0.025 | -0.0165 ± 0.0035 | 0.0045 ± 0.00071 | 0.017 ± 0.0057 | -0.006 ± 0.021 | 0.0055 ± 0.028 | -0.097 | -0.0005 ± 0.025 | -0.0045 ± 0.023 | 0.0025 ± 0.015 | 0.0035 ± 0.0035
CASM3C:CCL2/MCP-1 | 0.005 ± 0.013 | 0.0045 ± 0.0035 | 0.013 ± 0.0071 | -0.0005 ± 0.00071 | -0.0165 ± 0.005 | -0.0005 ± 0.025 | -0.002 ± 0.0057 | 0.0015 ± 0.011 | 0.0125 ± 0.036 | -0.0155 ± 0.0035 | -0.0105 ± 0.005 | 0.0065 ± 0.0035 | 0 ± 0.0028 | -0.027 ± 0.0028 | 0.02 | -0.015 ± 0.0071 | -0.0125 ± 0.0078 | -0.034 ± 0.034 | -0.0125 ± 0.0021
